Measurements published in patent US20250129095A1, “ANNULATED 2-AMINO-3-CYANO THIOPHENES AND DERIVATIVES FOR THE TREATMENT OF CANCER” (Boehringer Ingelheim Int'l GmbH Corp., priority 2021, published 2025).
In brackets after ≈: the same amount, converted by molar mass. Read-outs that look alike come from different tables or passages of the source.

Tests used:
SK-CO-1 cells = assay: SK-CO-1 CTG proliferation assay (120 h) (CRC, G12V); assay type: cell-based; settings: Homo sapiens
Protocol: (§1) SK-CO-1 cells (ATCC HTB-39) are dispensed into 384-well plates, flat and clear bottom (Greiner, PNr. 781091) at a density of 500 cells per well in 60 μL EMEM (Sigma M5650)+10% Fetal Calf Serum (HyClone, PNr.: SH30084.03) and incubated at 37° C. in a CO2 incubator overnight. The next day, compounds (10 mM stock in DMSO) are added with the ECHO acoustic liquid handler system (Beckman Coulter), including DMSO controls. Plates are incubated for 120 h, and cell viability is measured using CellTiter-Glo luminescent cell viability reagent (Promega product code G7570). Viability (stated as percent of control) is defined as relative luminescence units RLU of each well divided by the RLU of cells in DMSO controls.

SAS cells = assay: SAS CTG proliferation assay (120 h) (HNSCC, wt amplified); assay type: cell-based
Protocol: as §1, with “SAS” for “SK-CO-1”, “(JCRB0260)” for “(ATCC HTB-39)”, “300” for “500”, “DMEM:F12 (Gibco 31330-038)+10%” for “EMEM (Sigma M5650)+10%”, “overnight” for “overnight.”

KRAS (G12V)::SOS1 = biological target: T1, KRAS (G12V)::SOS1 (Homo sapiens, UniProt P01116, C118S/G12V); assay: KRAS::SOS1 AlphaScreen binding assay, KRAS G12V
T1 construct: KRAS (G12V) 1-169, N-terminal 6His-tag for purification, cleaved off; 6His-tag (N, cleaved yes); TEV cleavage site; made in house
T1 sequence (P01116 1-169 isoform P01116-2 G12V/C118S): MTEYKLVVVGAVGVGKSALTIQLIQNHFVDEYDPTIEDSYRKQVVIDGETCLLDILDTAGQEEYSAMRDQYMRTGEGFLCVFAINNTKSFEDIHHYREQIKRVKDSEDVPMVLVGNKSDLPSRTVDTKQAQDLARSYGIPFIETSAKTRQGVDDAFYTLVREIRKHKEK
Description: This assay can be used to examine the potency with which compounds according to the invention binding to (mutated) KRAS inhibit the protein-protein interaction between SOS1 and (mutated) KRAS e.g., KRAS WT, KRAS G12C, KRAS G12D, KRAS G12V, KRAS G13D. […] Low IC50 values in this assay setting are indicative of strong inhibition of protein-protein interaction between SOS1 and KRAS:
These assays measure the inhibitory effect of compounds on KRAS mutant protein-protein interactions using the Alpha Screen technology by Perkin Elmer
The following (mutant) enzyme forms of KRAS and interacting proteins are used in these assays at the given concentrations: • KRAS (G12D) 1-169, N-terminal 6His-tag, C-terminal avi-tag (Xtal BioStructures, Inc.); final assay concentration 10 nM and SOS1 564-1049, N-terminal 229 GST-tag, TEV cleavage site (Viva Biotech Ltd); final assay concentration 5 nM; • KRAS (G12C) 1-169, N-terminal 6His-tag for purification, cleaved off, C-terminal avi-tag, biotinylated, mutations: C51S, C80L, C118S (in house); final assay concentration 7.5 nM and SOS1 564-1049, N-terminal 229 GST-tag, TEV cleavage site (Viva Biotech Ltd); final assay concentration 5 nM; • KRAS (G12V) 1-169, N-terminal 6His-tag for purification, cleaved off, C-terminal avi-tag, biotinylated, TEV cleavage site, mutation: C118S, GDP loaded (in house); final assay concentration 10 nM and SOS1 564-1049, N-terminal 229 GST-tag, TEV cleavage site (Viva Biotech Ltd); final assay concentration 10 nM; • KRAS (G13D) 1-169, N-terminal 6His-tag for purification, cleaved off, C-terminal avi-tag, biotinylated, TEV cleavage site, mutation: C118S, GDP loaded (in house); final assay concentration 10 nM and SOS1 564-1049, N-terminal 229 GST-tag, TEV cleavage site (Viva Biotech Ltd); final assay concentration 10 nM; • KRAS (WT) 1-169, N-terminal 6His-tag for purification, cleaved off, C-terminal avi-tag, biotinylated, TEV cleavage site, mutation: C118S, GDP loaded (in house); final assay concentration 10 nM and SOS1 564-1049, N-terminal 229 GST-tag, TEV cleavage site (Viva Biotech Ltd); final assay concentration 10 nM.
Test compounds dissolved in DMSO are dispensed onto assay plates (Proxiplate 384 PLUS, white, PerkinElmer; 6008289) using an Access Labcyte Workstation with the Labcyte Echo 55×. For the chosen highest assay concentration of 100 μM, 150 nL of compound solution are transferred from a 10 mM DMSO compound stock solution. A series of eleven fivefold dilutions per compound are transferred to the assay plate, compound dilutions are tested in duplicates. DMSO are added as backfill to a total volume of 150 nL.
The assays run on a fully automated robotic system in a darkened room below 100 Lux. To 150 nl of compound dilution 10 μl of a mix including KRAS mutant protein, SOS1 (final assay concentrations see above) and GDP nucleotide (Sigma G7127; final assay concentration 10 μM) in assay buffer (1×PBS, 0.1% BSA, 0.05% Tween 20) are added into columns 1-24.
After 30 minutes incubation time 5 μl of Alpha Screen bead mix in assay buffer are added into columns 1-23. Bead mix consists of AlphaLISA Glutathione Acceptor Beads (PerkinElmer, Cat No AL109) and AlphaScreen Streptavidin Donor Beads (PerkinElmer Cat No 6760002) in assay buffer at a final assay concentration of 10 μg/ml each.
Plates are kept at room temperature in a darkened incubator. After an additional 60 minutes incubation time the signal is measured in a PerkinElmer Envision HTS Multilabel Reader using the AlphaScreen specs from PerkinElmer.
Each plate contains up to 16 wells of a negative control depending on the dilution procedure (platewise or serial) (DMSO instead of test compound; with KRAS mutant::SOS1 GDP mix and bead mix; column 23) and 16wells of a positive control (DMSO instead of test compound; with KRAS mutant::SOS1 GDP mix w/o bead mix; column 24).
As internal control known inhibitors of KRAS mutant::SOS1 interaction can be measured on each compound plate. […]

[1] = Solubility measurement (DMSO solution precipitation method); assay type: physicochemical; settings: aqueous buffer, kinetic from dmso stock
Protocol: The DMSO solution is diluted with an aqueous medium (McIlvaine buffer with pH=4.5 or 6.8) to a final concentration of 250 μM. After 24 h of shaking at ambient temperature a potentially formed precipitate is removed by filtration. The concentration of the test compound in the filtrate is determined by LC-UV methods by calibrating the signal to the signal of a reference solution with complete dissolution of the test compound in acetonitrile/water (1:1) with known concentration.

[2] = McIlvaine buffer pH 4.5, 24 h, read-out: Solubility [μg/ml] pH 4.5
[3] = McIlvaine buffer pH 6.8, 24 h, read-out: Solubility [μg/ml] pH 6.8

| SMILES | IC50 (SK-CO-1 cells) [nM] | IC50 (KRAS (G12V)::SOS1) [nM] | solubility at 24 h [1, 2] [µg/mL] | solubility at 24 h [1, 3] [µg/mL] | IC50 (SAS cells) [nM] |
| --- | --- | --- | --- | --- | --- |
| C[C@H](Oc1cc(O[C@H]2CNC(C)(C)C2)nc(-c2noc3c2CCC[C@@]32CCCc3sc(N)c(C#N)c32)n1)[C@@H]1CCCN1C (single isomer, unassigned) [II-8] | 774 | 10 | > 145 | > 146 | 2600 |
| C[C@H](Oc1cc(O[C@@H]2CNC[C@@H]2F)nc(-c2noc3c2CCC[C@@]32CCCc3sc(N)c(C#N)c32)n1)[C@@H]1CCCN1C [II-29] | 139 | 2 | – | – | 1050 |
| CO[C@@H]1C[C@@H]([C@H](C)Oc2cc(O[C@@H]3CNC3(C)C)nc(-c3noc4c3CCC[C@@]43CCCc4sc(N)c(C#N)c43)n2)N(C)C1 [II-30] | 260 | 2 | > 171 | > 165 | 267 |
| C[C@H](Oc1cc(O[C@@H]2CNC2(C)C)nc(-c2noc3c2CCC[C@@]32CCCc3sc(N)c(C#N)c32)n1)[C@@H]1C[C@@H](F)CN1C [II-31] | 394 | 2 | > 157 | > 143 | 402 |
| COc1c(OCC2(N(C)C)COC2)nc(-c2noc3c2CCC[C@@]32CCCc3sc(N)c(C#N)c32)nc1O[C@@H](C)[C@@H]1CCCN1C [II-25] | 326 | 2 | > 163 | > 152 | 55 |
| C[C@H](Oc1cc(Nc2cnccn2)nc(-c2noc3c2CCC[C@@]32CCCc3sc(N)c(C#N)c32)n1)[C@@H]1CCCN1C [II-14] | 115 | 3 | 67 (≈ 115 µM) | 11 (≈ 18.8 µM) | 285 |
| C[C@H](Oc1cc(Nc2ccccn2)nc(-c2onc3c2CCC[C@@]32CCCc3sc(N)c(C#N)c32)n1)[C@@H]1CCCN1C [Example I-6] | 273 | – | 23 (≈ 39.5 µM) | 2 (≈ 3.43 µM) | 81 |
| C[C@H](Oc1cc(Oc2cncnc2)nc(-c2onc3c2CCC[C@@]32CCCc3sc(N)c(C#N)c32)n1)[C@@H]1CCCN1C [Example I-3] | 29 | – | > 128 | > 121 | 14 |
| C[C@H]1CN(C)CCCN1c1cc(O[C@@H]2CNC2(C)C)nc(-c2noc3c2CCC[C@@]32CCCc3sc(N)c(C#N)c32)n1 [II-28] | 2590 | – | > 151 | > 146 | 4450 |
| C[C@H](Oc1cc(Oc2ccon2)nc(-c2noc3c2CCC[C@@]32CCCc3sc(N)c(C#N)c32)n1)[C@@H]1CCCN1C [II-3] | 84 | – | > 138 | 42 (≈ 73.2 µM) | 67 |
| C[C@H](Oc1cc(N(C)CCN(C)C)nc(-c2noc3c2CCC[C@@]32CCCc3sc(N)c(C#N)c32)n1)[C@@H]1CCCN1C [II-20] | 900 | – | > 144 | > 142 | 327 |

Continued by falling IC50 (SK-CO-1 cells), values first:

| IC50 (SK-CO-1 cells) [nM] | IC50 (KRAS (G12V)::SOS1) [nM] | solubility at 24 h [1, 2] [µg/mL] | solubility at 24 h [1, 3] [µg/mL] | SMILES | IC50 (SAS cells) [nM] |
| --- | --- | --- | --- | --- | --- |
| 977 | – | > 143 | > 126 | C[C@H](Oc1cc(OCC2(N(C)C)CC2)nc(-c2noc3c2CCC[C@@]32CCCc3sc(N)c(C#N)c32)n1)[C@@H]1CCCN1C [II-21] | 577 |
| 796 | – | > 146 | 70 (≈ 117 µM) | C[C@H](Oc1cc(Sc2ncccn2)nc(-c2onc3c2CCC[C@@]32CCCc3sc(N)c(C#N)c32)n1)[C@@H]1CCCN1C [Example I-7] | 221 |
| 354 | 2 | > 168 | > 157 | C[C@H](Oc1cc(OCC2(N(C)C)COC2)nc(-c2noc3c2CCC[C@@]32CCCc3sc(N)c(C#N)c32)n1)[C@@H]1CCCN1C [II-22] | 84 |
| 171 | 3 | – | – | C[C@H](Oc1cc(O[C@@H]2CNC2(C)C)nc(-c2noc3c2CCC[C@@]32CCCc3sc(N)c(C#N)c32)n1)[C@@H]1CCCN1C [II-9] | 179 |
| 60 | 2 | 67 (≈ 115 µM) | < 1 | C[C@H](Oc1cc(Nc2ncccn2)nc(-c2noc3c2CCC[C@@]32CCCc3sc(N)c(C#N)c32)n1)[C@@H]1CCCN1C [II-17] | 104 |
| 24 | 2 | 95 (≈ 161 µM) | < 1 | C[C@H](Oc1cc(Oc2nccs2)nc(-c2onc3c2CCC[C@@]32CCCc3sc(N)c(C#N)c32)n1)[C@@H]1CCCN1C [Example I-1] | 19 |
